Among the data in ChEMBL document CHEMBL4052640 (Eur J Med Chem, 2017) are EC50 and CC50 values, retold here.

Series [1] has as its system Respiratory syncytial virus. Format: functional, cell-based. The settings on record: human respiratory syncytial virus, HeLa.
In series [2] the test system is Influenza A virus. In kind it is functional, cell-based. The following applies: A/Ned/378/05(H1N1), MDCK.
In series [3] the test system is Mammalian orthoreovirus 1. In kind it is functional. The settings on record: Mammalian orthoreovirus 1, Vero.
Series [4] concerns Yellow fever virus. As to the kind of experiment: microbe, parasite or virus in culture. The following applies: Vero.
Series [5] has as its system Influenza A virus. In kind it is functional, cell-based. The following applies: A/Ned/378/05(H1N1), MDCK. This is another data set of the same source.
In series [6] the test system is Human respirovirus 3. The experiment in a line: microbe, parasite or virus in culture. The following applies: Human respirovirus 3, Vero.
The test system of series [7] is Sindbis virus. In kind it is functional. The settings on record: Vero.
Series [8] can be described thus: cells. The settings on record: MDCK.
The test system of series [9] is Vesicular stomatitis virus. The experiment in a line: microbe, parasite or virus in culture. The settings on record: HeLa.
The subject of series [10] is Influenza B virus. As to the kind of experiment: microbe, parasite or virus in culture. The following applies: B/Ned/537/05, MDCK.
Series [11] concerns MDCK. As to the kind of experiment: Cytotoxicity against dog MDCK cells assessed as reduction in cell viability measured after 5 to 6 days by MTS assay. Format: cell-based, Canis lupus familiaris. Background: Tetrazolium assays rely on reduction of a dye to a coloured formazan, in cell work by metabolically active cells.
In series [12] the test system is Coxsackievirus B4. Format: functional. The following applies: Enterovirus B, Vero.
A short description of series [13]: cells. The following applies: Influenza A virus, MDCK.
Series [14] relates to Coxsackievirus B4. Format: functional, cell-based. The settings on record: Enterovirus B, HeLa.
Series [15] concerns Punta Toro virus. Format: functional. The settings on record: Vero.
Series [16] can be described thus: cells. The following applies: Influenza A virus, MDCK. The source holds these as a separate data set.

Structures are written as SMILES. Bounds are passed on as bounds.

For orientation: EC50 means the concentration at which the effect is half-maximal. What is called CC50 is the concentration at which the toxic effect on the cells reaches its halfway point. On to `CC1(C)N=C(N)N=C(N)N1c1ccccc1Cl`, for which the EC50 in series [1] was 48 µM; in series [2] it was > 100 µM; in series [3], > 100 µM; in [4], > 100 µM; in [5], > 100 µM; in [6], > 100 µM. The EC50 is > 100 µM in [7]; 19 µM in series [8]; > 100 µM in [9]; 56 µM in [10]; > 100 µM in series [12]; 34 µM in series [13]. Moreover, the values for the EC50 in [14], in series [15] and in series [16] were > 100 µM, > 100 µM and > 83 µM, respectively. Besides, in series [11], the CC50 is > 100 µM.

Regarding `CC1(C)N=C(N)N=C(N)N1c1ccc(Cl)cc1Cl`, the EC50 in [1], in [2], in series [3], in series [4], in series [5] and in [6] was > 100 µM in each case. Moreover, the EC50 was > 100 µM in series [7]; > 100 µM in [8]; > 100 µM in series [9]; > 100 µM in series [10]; > 100 µM in [12]; ≥ 83 µM in series [13]. Further, the EC50 in series [14] was > 100 µM; in [15], > 100 µM; in series [16], > 83 µM. The CC50 in [11] is > 100 µM.

Consider `CC1(C)N=C(N)N=C(N)N1c1ccc(C(=O)O)cc1`, for which the EC50 in [1], in [2], in series [3], in [4], in series [5] and in series [6] was > 100 µM each time. Further, the EC50 in series [7] is > 100 µM; in series [8], > 100 µM; in series [9], > 100 µM; in [10], > 100 µM; in series [12] it was > 100 µM; in [13], > 83 µM. For the same molecule, the EC50 is > 100 µM in series [14], > 100 µM in series [15] and > 83 µM in series [16]. In series [11], the CC50 was > 100 µM.

Regarding `CC(C)C1(C)N=C(N)N=C(N)N1c1ccc(Cl)cc1` (stereo unspecified), the 50% effective concentration (EC50) in [1] is 0.8 µM; in series [2], 45 µM; in series [3], > 100 µM; in series [4], > 100 µM; in [5], 68 µM; in series [6] it was > 100 µM. The EC50 in series [7] was > 100 µM; in series [8], 1 µM; in series [9], > 100 µM; in series [10], 2.8 µM; in series [12], > 100 µM; in series [13] it was 33 µM. For the same molecule, the figures for the EC50 in series [14], in series [15] and in series [16] were > 100 µM, > 100 µM and 24 µM, respectively. Also, the CC50 in series [11] is > 100 µM.

`NC1=NC2(CCCC2)N(c2ccc(Cl)cc2)C(N)=N1`: the EC50 in series [1] is 8 µM; in [2], > 100 µM; in series [3], > 100 µM; in series [4], > 100 µM; in series [5] it was > 100 µM; in [6] it was > 100 µM. Further, the EC50 in series [7] was > 100 µM; in series [8], 6.1 µM; in series [9], > 100 µM; in series [10], 18 µM; in [12], > 100 µM; in series [13], > 83 µM. Further, the results for the EC50 in series [14], in series [15] and in [16] were > 100 µM, > 100 µM and > 83 µM, respectively. The CC50 in series [11] was > 100 µM.

Take `NC1=NC2(CCCCC2)N(c2ccc(Cl)cc2)C(N)=N1`: the EC50 in series [1], in [2], in series [3], in [4], in series [5] and in [6] was > 100 µM in each case. The EC50 is > 100 µM in series [7]; 36 µM in series [8]; > 100 µM in [9]; > 83 µM in [10]; > 100 µM in series [12]; 10 µM in series [13]. Further, the EC50 is > 100 µM in series [14], > 100 µM in series [15] and 49 µM in [16]. For the same molecule, in series [11], the CC50 was > 100 µM.

`CCC1(C)N=C(N)N=C(N)N1c1ccc(Cl)cc1` (stereo unspecified): the EC50 was 5.4 µM in series [1]; > 100 µM in series [2]; > 100 µM in series [3]; > 100 µM in [4]; > 100 µM in series [5]; > 100 µM in [6]. Moreover, the EC50 is > 100 µM in series [7]; 2.2 µM in series [8]; > 100 µM in series [9]; 8.3 µM in series [10]; > 100 µM in [12]; > 83 µM in series [13]. Further, the figures for the EC50 in series [14], in series [15] and in [16] were > 100 µM, > 100 µM and > 83 µM, respectively. Also, in series [11], the 50% cytotoxic concentration (CC50) was > 100 µM.

Consider `CCOC(=O)c1ccc(N2C(N)=NC(N)=NC2(C)C)cc1`, for which the EC50 in series [1], in [2], in series [3], in series [4], in series [5] and in [6] was > 100 µM each time. In addition, the EC50 is > 100 µM in series [7]; > 100 µM in series [8]; > 100 µM in series [9]; > 100 µM in [10]; > 100 µM in series [12]; > 83 µM in series [13]. Besides, the values for the EC50 in series [14], in [15] and in series [16] were > 100 µM, > 100 µM and > 83 µM, respectively. Besides, in [11], the CC50 is > 100 µM.

Regarding `CCCC1N=C(N)N=C(N)N1c1ccc(Cl)cc1` (stereo unspecified), the EC50 in series [1], in series [2], in [3], in [4], in series [5] and in series [6] was > 100 µM throughout. Further, the EC50 in series [7] was > 100 µM; in series [8] it was > 100 µM; in [9] it was > 100 µM; in series [10], 29 µM; in series [12], > 100 µM; in series [13], > 83 µM. In addition, the EC50 was > 100 µM in series [14], > 100 µM in series [15] and > 83 µM in [16]. In series [11], the CC50 is > 100 µM.

As to `CC1N=C(N)N=C(N)N1c1ccc(Cl)cc1` (stereo unspecified), the EC50 in series [1] was 6.8 µM; in series [2], > 100 µM; in series [3] it was > 100 µM; in [4], > 100 µM; in series [5], > 100 µM; in series [6] it was > 100 µM. Besides, the EC50 in series [7] is > 100 µM; in series [8] it was 4.9 µM; in series [9] it was > 100 µM; in series [10], 17 µM; in [12], > 100 µM; in series [13], > 83 µM. Besides, the EC50 was > 100 µM in series [14], > 100 µM in series [15] and > 83 µM in series [16]. Also, the CC50 in series [11] was > 100 µM.

Turning to `NC1=NC(c2ccccc2)N(c2ccc(Cl)cc2)C(N)=N1` (stereo unspecified), the EC50 in series [1], in series [2], in series [3], in series [4], in series [5] and in [6] was > 100 µM in each case. In addition, the EC50 in series [7] was > 100 µM; in [8] it was > 100 µM; in series [9] it was > 100 µM; in series [10] it was > 100 µM; in [12] it was > 100 µM; in [13], > 83 µM. Also, the EC50 is > 100 µM in series [14], > 100 µM in [15] and > 83 µM in [16]. In [11], the CC50 is > 100 µM.
